Reference: PubChem BioAssay (NCI)
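Following 48 hours of exposure in 96-well plates, responses at five concentrations were used to interpolate endpoints linearly. The concentration for full growth arrest is given as TGI.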

What was measured:
Test in all cases: NCI-60 cell line screen, 48 h
[1] = system: 786-0 renal
[2] = system: A498 renal
[3] = system: A549 NSCLC
[4] = system: ACHN renal
[5] = system: BT-549 breast
[6] = system: CAKI-1 renal
[7] = system: CCRF-CEM leukemia
[8] = system: COLO 205 colon
[9] = system: DU-145 prostate
[10] = system: EKVX NSCLC
[11] = system: HCT-116 colon
[12] = system: HCT-15 colon
[13] = system: HL-60(TB) leukemia
[14] = system: HOP-92 NSCLC
[15] = system: HS 578T breast
[16] = system: HT29 colon
[17] = system: IGROV1 ovarian
[18] = system: K-562 leukemia
[19] = system: KM12 colon
[20] = system: LOX IMVI melanoma
[21] = system: M14 melanoma
[22] = system: MALME-3M melanoma
[23] = system: MCF7 breast
[24] = system: MDA-MB-231 breast
[25] = system: MDA-MB-435
[26] = system: MDA-N
[27] = system: MOLT-4 leukemia
[28] = system: NCI-H226 lung
[29] = system: NCI-H23 lung
[30] = system: NCI-H460 lung
[31] = system: NCI-H522 lung
[32] = system: NCI/ADR-RES ovarian
[33] = system: OVCAR-3 ovarian
[34] = system: OVCAR-4 ovarian
[35] = system: OVCAR-5 ovarian
[36] = system: OVCAR-8 ovarian
[37] = system: PC-3 prostate
[38] = system: RXF 393 renal
[39] = system: SF-268 CNS
[40] = system: SF-295 CNS
[41] = system: SF-539 CNS
[42] = system: SK-MEL-2 melanoma
[43] = system: SK-MEL-28 melanoma
[44] = system: SK-MEL-5 melanoma
[45] = system: SK-OV-3 ovarian
[46] = system: SN12C renal
[47] = system: SNB-19 CNS
[48] = system: SNB-75 CNS
[49] = system: SR leukemia
[50] = system: SW-620 colon
[51] = system: T-47D breast
[52] = system: TK-10 renal
[53] = system: U251 CNS
[54] = system: UACC-257 melanoma
[55] = system: UACC-62 melanoma
[56] = system: UO-31 renal
[57] = system: HCC-2998 colon
[58] = system: HOP-62 NSCLC
[59] = system: RPMI-8226 leukemia

For COC(=O)Cc1c(/C=C/C(C)(C)n2cnc(CCN3C(=O)CCC3=O)c2)[nH]c2ccccc12, the TGI [1] was > 100 µM, the TGI [2] was > 100 µM and the TGI [3] was > 100 µM. For the same compound, the TGI [4] was > 100 µM, the TGI [5] was > 100 µM and the TGI [6] was > 100 µM. The TGI [7] was > 100 µM, the TGI [8] was > 100 µM and the TGI [9] was > 100 µM. For the same compound, the TGI [10] was > 100 µM, the TGI [11] was > 100 µM and the TGI [12] was > 100 µM. The TGI [13] was > 100 µM, the TGI [14] was > 100 µM and the TGI [15] was 89.3 µM. The TGI [16] was > 100 µM, the TGI [17] was > 100 µM and the TGI [18] was > 100 µM. For the same compound, the TGI [19] was > 100 µM, the TGI [20] was > 100 µM and the TGI [21] was > 100 µM. The TGI [22] was 97.8 µM, the TGI [23] was > 100 µM and the TGI [24] was > 100 µM. The TGI [25] was > 100 µM, the TGI [26] was > 100 µM and the TGI [27] was > 100 µM. The TGI [28] was > 100 µM, the TGI [29] was > 100 µM and the TGI [30] was > 100 µM. For the same compound, the TGI [31] was > 100 µM, the TGI [32] was > 100 µM and the TGI [33] was > 100 µM. For the same compound, the TGI [34] was > 100 µM, the TGI [35] was > 100 µM and the TGI [36] was > 100 µM. For the same compound, the TGI [37] was > 100 µM, the TGI [38] was > 100 µM and the TGI [39] was > 100 µM. For the same compound, the TGI [40] was > 100 µM, the TGI [41] was > 100 µM and the TGI [42] was > 100 µM. For the same compound, the TGI [43] was > 100 µM, the TGI [44] was > 100 µM and the TGI [45] was > 100 µM. For the same compound, the TGI [46] was > 100 µM, the TGI [47] was > 100 µM and the TGI [48] was > 100 µM. The TGI [49] was > 100 µM, the TGI [50] was > 100 µM and the TGI [51] was 60.1 µM. For the same compound, the TGI [52] was > 100 µM, the TGI [53] was > 100 µM and the TGI [54] was > 100 µM. The TGI [55] was > 100 µM and the TGI [56] was > 100 µM.
In the case of CO/N=C(\C(=O)Nc1cncs1)c1csc(N)n1, the TGI [1] is reported as > 10 µM, the TGI [2] is reported as > 10 µM and the TGI [3] is reported as > 10 µM. The TGI [4] was > 10 µM, the TGI [5] was > 10 µM and the TGI [6] was > 10 µM. For the same compound, the TGI [7] was > 10 µM, the TGI [8] was > 10 µM and the TGI [9] was > 10 µM. For the same compound, the TGI [10] was > 10 µM, the TGI [57] was > 10 µM and the TGI [11] was > 10 µM. For the same compound, the TGI [12] was > 10 µM, the TGI [58] was > 10 µM and the TGI [14] was > 10 µM. The TGI [15] was > 10 µM, the TGI [16] was > 10 µM and the TGI [17] was > 10 µM. The TGI [18] was > 10 µM, the TGI [19] was > 10 µM and the TGI [20] was > 10 µM. The TGI [21] was > 10 µM, the TGI [22] was > 10 µM and the TGI [23] was > 10 µM. For the same compound, the TGI [24] was > 10 µM, the TGI [25] was > 10 µM and the TGI [26] was > 10 µM. The TGI [27] was > 10 µM, the TGI [29] was > 10 µM and the TGI [30] was > 10 µM. For the same compound, the TGI [31] was > 10 µM, the TGI [32] was > 10 µM and the TGI [33] was > 10 µM. The TGI [34] was > 10 µM, the TGI [35] was > 10 µM and the TGI [36] was > 10 µM. The TGI [37] was > 10 µM, the TGI [59] was > 10 µM and the TGI [39] was > 10 µM. For the same compound, the TGI [40] was > 10 µM, the TGI [41] was > 10 µM and the TGI [43] was > 10 µM. The TGI [44] was > 10 µM, the TGI [45] was > 10 µM and the TGI [46] was > 10 µM. The TGI [47] was > 10 µM, the TGI [48] was > 10 µM and the TGI [49] was > 10 µM. The TGI [50] was > 10 µM, the TGI [51] was > 10 µM and the TGI [52] was > 10 µM. For the same compound, the TGI [53] was > 10 µM, the TGI [54] was > 10 µM and the TGI [55] was > 10 µM. For the same compound, the TGI [56] was > 10 µM.
